Values of other authors in EP3796908B1, “CONTROLLED RELEASE PROPIVERINE FORMULATIONS” (Santa Farma Ilaç Sanayi A.S., priority 2018, dated 2020).
Like-named read-outs stand apart in the source and are kept apart here.

How the values were obtained:
[1] = for maximal plasma concentrations reached after / mean absolute bioavailability: oral administration
[2] = BCS classification
[3] = administration of the ER capsule

mean Cmax [1, 3]: about 70 ng/ml
time in which Cmax is reached after administration [1, 3]: ≤ 9.5 h
maximal plasma concentrations reached after ([1]; immediate release): 2.3 h
mean absolute bioavailability ([1]; immediate release): 40.5%
maximal plasma concentrations reached after ([1]; modified release): 9.9 h
mean absolute bioavailability ([1]; modified release): 60.8 ± 17.3%
solubility [2]: high solubility
Compound: CCCOC(C(=O)OC1CCN(C)CC1)(c1ccccc1)c1ccccc1 [propiverine, 1-methyl-4-piperidyl diphenylpropoxy acetate]
